This test deals with monocistronic NK5.1 HCV replicon in Huh7 cells. The test is described as follows: HCV replicon assay, monocistronic replicon cell line. Format: cell-based, hepatitis C virus. As to conditions: Hepatitis C virus, Huh-7, 72 h; table T3 (compounds 471-640); monocistronic replicon in Huh7 cells, 3 days incubation, HCV RNA/GAPDH RNA by TaqMan RT-PCR; read-out: Mono EC50 Median. In short, it runs like this:
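Huh7 cells carrying the monocistronic NK5.1 replicon, seeded 24 h before dosing, were exposed to six-point half-log compound series (0.6% DMSO) for 3 days at 37 °C. Replicon RNA was quantified by TaqMan RT-PCR, normalised to GAPDH and compared with DMSO controls to derive EC50.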
A general note: In antiviral work, replicon cells carry a viral genome segment that copies itself.

With `COc1ccc(-c2nc(-c3ncccn3)n[nH]2)c(O)c1` [Compound 568, 5-Methoxy-2-(5-pyrimidin-2-yl-2H-[1,2,4]triazol-3-yl)-phenol], the EC50 was > 32 µM.
To `Oc1ccccc1-c1nc(-c2ncccn2)n[nH]1` [Compound 569, 2-(5-pyrimidin-2-yl-2H-[1,2,4]triazol-3-yl)-phenol] belongs > 32 µM; to `COc1cccc(-c2nc(-c3ncccn3)n[nH]2)c1O` [Compound 570, 6-Methoxy-2-(5-pyrimidin-2-yl-2H-[1,2,4]triazol-3-yl)-phenol], > 32 µM.
The value for `CCN(CC)c1ccc(-c2nc(-c3ncccn3)n[nH]2)c(O)c1` [Compound 571, 5-Diethylamino-2-(5-pyrimidin-2-yl-2H-[1,2,4]triazol-3-yl)-phenol] was 18 µM; that for `Oc1ccc(O)c(-c2nc(-c3ncccn3)n[nH]2)c1` [Compound 572, 4-Hydroxy-2-(5-pyrimidin-2-yl-2H-[1,2,4]triazol-3-yl)-phenol] was > 32 µM.
The value for `Oc1ccc2ccccc2c1-c1nc(-c2ncccn2)n[nH]1` [Compound 573, 1-(5-pyrimidin-2-yl-2H-[1,2,4]triazol-3-yl)-naphthalen-2-ol] was 3.5 µM.
As to `Oc1c(-c2nc(-c3ncccn3)n[nH]2)ccc2ccccc12` [Compound 574, 2-(5-Pyrimidin-2-yl-2H-[1,2,4]triazol-3-yl)-naphthalen-1-ol], the EC50 is > 32 µM.
In the case of `CC(C)(C)c1ccc(O)c(-c2nc(-c3cnccn3)n[nH]2)c1` [Compound 575, 4-tert-Butyl-2-(5-pyrazin-2-yl-2H-[1,2,4]triazol-3-yl)-phenol], the EC50 was 9 µM.
The value for `O=[N+]([O-])c1ccc(O)c(-c2nc(-c3cnccn3)n[nH]2)c1` [Compound 576, 4-Nitro-2-(5-pyrazin-2-yl-2H-[1,2,4]triazol-3-yl)-phenol] was 16 µM; that for `Oc1ccc(F)cc1-c1nc(-c2cnccn2)n[nH]1` [Compound 577, 4-Fluoro-2-(5-pyrazin-2-yl-2H-[1,2,4]triazol-3-yl)-phenol] was 18 µM; that for `COc1ccc(O)c(-c2nc(-c3cnccn3)n[nH]2)c1` [Compound 578, 4-Methoxy-2-(5-pyrazin-2-yl-2H-[1,2,4]triazol-3-yl)-phenol] was > 32 µM.
The value for `Oc1ccc(Cl)cc1-c1nc(-c2cnccn2)n[nH]1` [Compound 579, 4-Chloro-2-(5-pyrazin-2-yl-2H-[1,2,4]triazol-3-yl)-phenol] was 5.8 µM.
The value for `CCOc1cccc(-c2nc(-c3cnccn3)n[nH]2)c1O` [Compound 580, 6-Ethoxy-2-(5-pyrazin-2-yl-2H-[1,2,4]triazol-3-yl)-phenol] was > 32 µM; that for `Oc1cc(OCc2ccccc2)ccc1-c1nc(-c2cnccn2)n[nH]1` [Compound 581, 5-Benzyloxy-2-(5-pyrazin-2-yl-2H-[1,2,4]triazol-3-yl)-phenol] was > 32 µM.
Turning to `Oc1ccc(Br)cc1-c1nc(-c2cnccn2)n[nH]1` [Compound 582, 4-Bromo-2-(5-pyrazin-2-yl-2H-[1,2,4]triazol-3-yl)-phenol], the EC50 was found to be 18 µM.
The value for `Cc1ccc(O)c(-c2nc(-c3cnccn3)n[nH]2)c1` [Compound 583, 4-Methyl-2-(5-pyrazin-2-yl-2H-[1,2,4]triazol-3-yl)-phenol] was > 32 µM; that for `COc1ccc(-c2nc(-c3cnccn3)n[nH]2)c(O)c1` [Compound 584, 5-Methoxy-2-(5-pyrazin-2-yl-2H-[1,2,4]triazol-3-yl)-phenol] was > 32 µM; that for `Oc1ccccc1-c1nc(-c2cnccn2)n[nH]1` [Compound 585, 2-(5-pyrazin-2-yl-2H-[1,2,4]triazol-3-yl)-phenol] was > 32 µM.
The value for `COc1cccc(-c2nc(-c3cnccn3)n[nH]2)c1O` [Compound 586, 6-Methoxy-2-(5-pyrazin-2-yl-2H-[1,2,4]triazol-3-yl)-phenol] was > 32 µM.

As a reminder, the EC50 is the concentration that produces a half-maximal response.
